Molecular target: T1, Pif1^238–780 (Saccharomyces cerevisiae, UniProt P07271)
T1 sequence (P07271 238-780): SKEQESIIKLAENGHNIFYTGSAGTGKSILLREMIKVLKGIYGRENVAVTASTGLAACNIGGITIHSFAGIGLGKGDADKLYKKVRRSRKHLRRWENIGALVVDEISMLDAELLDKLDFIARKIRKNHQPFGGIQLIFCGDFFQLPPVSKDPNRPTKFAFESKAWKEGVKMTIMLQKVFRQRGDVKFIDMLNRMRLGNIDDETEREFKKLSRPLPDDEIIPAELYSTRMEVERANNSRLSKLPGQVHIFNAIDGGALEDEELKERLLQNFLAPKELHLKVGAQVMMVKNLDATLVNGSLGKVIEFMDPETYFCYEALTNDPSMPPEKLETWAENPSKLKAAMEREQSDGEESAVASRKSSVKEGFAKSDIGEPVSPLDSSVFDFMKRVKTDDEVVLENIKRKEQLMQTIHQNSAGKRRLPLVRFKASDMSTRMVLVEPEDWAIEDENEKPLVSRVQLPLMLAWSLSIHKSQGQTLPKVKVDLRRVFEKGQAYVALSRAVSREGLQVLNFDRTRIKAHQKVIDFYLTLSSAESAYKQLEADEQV
Experiment: ssDNA-dependent ATPase
Type: biochemical

Nc1ncnc2c1ncn2[C@@H]1O[C@H](COP(=O)(O)OP(=O)(O)OP(=O)(O)O)[C@@H](O)[C@H]1O [ATP]
KATP: does not have major effects on the DNA-dependent ATPase activity and the KATP (Figure S1)

Reference: PMC4826290 (Journal of molecular biology, 2016)
